Patent EP0801947B1, “Use of octopirox as skin depigmentation agent” (L'OREAL, priority 1996, dated 1997)

Test system: tyrosinase de champignons
Assay: Inhibition of the dopa-oxidase activity of mushroom tyrosinase (dopachrome formation followed by visible spectrometry at 475 nm)
Assay type: biochemical
Excerpt: Un test a mis en évidence l'activité de l'octopirox comme inhibiteur de la tyrosinase par évaluation de son effet inhibiteur sur l'activité dopa-oxydase de la tyrosinase des mélanocytes de champignons.
Selon ce test, on suit par spectrométrie visible à 475 nm la quantité de dopachrome formée au cours de la chaîne de réaction de transformation de la tyrosine en mélanine, en fonction du temps. Ces réactions sont catalysées in vitro par la tyrosinase de champignons, en présence d'un co-substrat réducteur (la L-dopa en petite quantité) pour initier la réaction d'hydroxylation de la L-tyrosine en L-dopa, laquelle est ensuite oxydée catalytiquement en dopaquinone puis en dopachrome, produit intermédiaire avant les réactions d'oxydation non enzymatiques aboutissant à la formation de mélanine.
Le milieu réactionnel utilisé pour réaliser ce test comprend 1 ml d'une solution de L-tyrosine à 2.10^-3 M dans du tampon phosphate 0,1 M de pH = 6,5, 0,1 ml de solution de L-dopa à 10^-4 M dans le tampon phosphate, 0,05 ml de solution de tyrosinase de champignons à 2.400 unités/ml dans le tampon phosphate et 1,85 ml de solution de l'inhibiteur à 10^-2 M dans le tampon phosphate. Pour le témoin, la quantité d'inhibiteur a été remplacée par de l'éthanol. […]
La concentration de 10^-2 M d'octopirox dans le milieu réactionnel correspond à une quantité équimolaire par rapport à la tyrosine utilisée. […]

## Cc1cc(CC(C)CC(C)(C)C)n(O)c(=O)c1 (centres unmarked) [octopirox, 1-hydroxy-4-méthyl-6-(2,4,4-triméthylpentyl)-2(1H)-pyridinone]
Inhibitor solution 10^-2 M in phosphate buffer 0,1 M pH 6,5, L-tyrosine 2.10^-3 M, L-dopa 10^-4 M, control (ethanol) 9,5 minutes, figure 1 curves (b)
  temps pour obtenir le même pourcentage de dopachrome formée, par exemple 100 %: 14 min
Inhibitor solution 10^-2 M, compared with control curve (a), figure 1, result in words
  quantité de dopachrome formée au cours du temps: net ralentissement de la quantité de dopachrome formée au cours du temps
